“Also recorded” adds a separate entry of the source. Read-outs that look alike come from different tables or passages of the source.
Key:
[1] = Dispersibility / sedimentation of active powder with quillaja powder in DI water (time-dependent trial); assay type: physicochemical; conditions: for Relative Dispersibilities without quillaja powder: FIGS. 1-6
Description: This example sets forth compositions and methods for making compositions of one active ingredient with quillaja powder. Each of the compositions is prepared by mixing one active ingredient with quillaja powder at a fixed ratio of about 75:25, about 60:40, about 50:50, about 40:60, or about 25:75. This example also sets forth methods to test the dispersibilities of the resulting compositions.
• 1. Add 5 mL DI water to 15 mL disposable glass test tube • 2. Weight out Active ingredient (back weigh for accuracy) • a. For 100% active ingredient, weigh out close to the target amount, note the weight, then zero the balance (with active ingredient still on it) • b. Add active ingredient to test tube with DI water • c. Place mostly empty powder weight boat back onto scale and record actual weight added • d. For other mixtures of active ingredient and quillaja powder, perform similar but add to new weight boat to mix powders (instead of adding directly to test tube) • 3. Weigh out quillaja powder (back weigh for accuracy) • a. Weigh out close to target amount of quillaja, note the weight, then zero the balance (with quillaja still on it) • b. Add quillaja to mixture weight boat (with active) • c. Place mostly empty quillaja weigh boat back onto scale and record actual weight added • 4. Repeat for all ratios of powder mixtures below (dose-dependent study):
• 5. Mix powders together • 6. Add powder mixture to the test tube with DI water. Vortex for exactly 2 minutes and perform time-dependent study • 7. Let settle for 10 minutes then take picture/note observations such as degree of turbidity, dispersibility, any large solids, etc. • 8. After 30 minutes (total), take picture/note observations • 9. After 2 hours (total), take picture/note observations • 10. After 4 hours (total), take picture/note observations • 11. Take special note of the size of the solid “pellet” that settles out on the bottom • a. Try to measure its size (estimated) by taking the radius/diameter combined with the height
This example sets forth compositions of CoQ10 powder and quillaja powder at fixed ratios of 100:0, about 75:25, about 60:40, about 50:50, about 40:60, and about 25:75 respectively. As used herein in Example A2, CoQ10 powder is ubiquinone powder as CoQ10(ubiquinone) powder. The compositions have been prepared according to experimental procedures in Example 1A. A time-dependent trial of sedimentation rates of the compositions comprising ubiquinone powder and quillaja powder at different ratios in water was conducted at time points of 10 minutes, 30 minutes, 2 hours, and 4 hours are shown in FIG. 1. Regarding the test tubes in each of the pictures of FIG. 1, from right to left, the weight ratios of CoQ10(ubiquinone) powder to quillaja powder are in the order of 100:0, about 75:25, about 60:40, about 50:50, about 40:60, and about 25:75 respectively. […] Increasing extent of turbidity was indicative of the highest dispersibility and solubility.
This example sets forth comparisons of the dispersibilities for compositions of Examples A2-A7, which comprise various active ingredients mixed with quillaja powder at various fixed ratios. After comparing the results shown in FIGS. 1-6, the relative dispersibilities are as following: • a) Relative Dispersibilities without quillaja powder: Quercetin>Berberine>Resveratrol>Curcumin>DIM>CoQ10(ubiquinone) • b) Relative Dispersibilities with quillaja powder at time point of 30 minute or less: Quercetin>(Curcumin=Resveratrol)>(DIM=Berberine)>CoQ10(ubiquinone) • c) Relative Dispersibilities with quillaja powder at time point of 2 hours or more Quercetin>(DIM=Curcumin=Resveratrol)>Berberine>CoQ10(ubiquinone)

[2] = Surface tension interaction by visual observation of glass smearing above the water level; assay type: physicochemical
Description: This example sets forth comparisons of the surface tension interactions of the compositions of Example A2-A7. The surface tension interactions of the compositions of various active ingredients mixed with quillaja powder at various fixed ratios were specifically compared with those of the compositions of various active ingredients without quillaja powder. Surface tension interaction is determined by visual observation of glass smearing of active ingredient powders above the water level. • a) Relative surface tension interaction without quillaja powder: (CoQ10(ubiquinone)≥Curcumin)>(Resveratrol≥DIM)>(Quercetin≥Berberine) • b) Relative surface tension interaction with quillaja powder: […]

[3] = Bioaccessibility of ubiquinol by simulated in vitro digestion; assay type: in vitro ADME; conditions: HPLC of filtered supernatant
From the text: In some embodiments, methods of increasing the bioaccessibility and/or bioavailability of an active ingredient in a subject are provided. The active ingredient can be any active ingredients, such as, but not limited to, those described herein. In some embodiments, the methods comprise administering to the subject any of the compositions provided for herein. The administration can be by any method, such as those described herein. […] An increase in bioaccessibility can be determined by any suitable method. For example, bioaccessibility can be measured by simulated in vitro digestion. […] Without being bound to any particular method, in some embodiments, bioaccessibility is determined by mixing a sample (a composition) with a saliva solution and, optionally, mucin. […] The samples can then be analyzed by HPLC to determine the increase in bioaccessibility. Bioaccessibility can be calculated by dividing the amount of the at least one active ingredient measured by, for example HPLC, by the theoretical (or actual amount of ubiquinol in the sample)×100 to determine the percent bioaccessibility. […]
This example sets forth to test the effect of quillaja powder on bioaccessiblity of ubiquinol. Bioaccessibility of ubiquinol was measured by simulated in vitro digestion. […] Bioaccessibility (%)=(ubiquinol measured by HPLC/theoretical amount of ubiquinol in the sample)×100%.

[4] = active:quillaja 100:0, DI water, 10 minutes, 30 minutes, 2 hours, 4 hours

Structure (SMILES) | dispersibility and solubility in water, tube without quillaja powder [1, 4] | Relative Dispersibilities with quillaja powder at time point of 30 minute or less [1] | Relative Dispersibilities with quillaja powder at time point of 2 hours or more [1] | Relative Dispersibilities without quillaja powder [1] | Relative surface tension interaction without quillaja powder [2] | Relative surface tension interaction without quillaja powder ([2]; listed as curcumin) | dispersibility and solubility in water, tube without quillaja powder [1] | bioaccessibility of ubiquinol [3] [%] | Relative surface tension interaction without quillaja powder ([2]; listed as quercetin) | Relative surface tension interaction without quillaja powder ([2]; listed as berberine)
COc1cc(/C=C/C(=O)CC(=O)/C=C/c2ccc(O)c(OC)c2)ccc1O [Curcumin, curcumin] | complete separation | Quercetin>(Curcumin=Resveratrol)>(DIM=Berberine)>CoQ10(ubiquinone) | Quercetin>(DIM=Curcumin=Resveratrol)>Berberine>CoQ10(ubiquinone) | Quercetin>Berberine>Resveratrol>Curcumin>DIM>CoQ10(ubiquinone) | (CoQ10(ubiquinone)≥Curcumin)>(Resveratrol≥DIM)>(Quercetin≥Berberine) | Highest surface tension |  |  |  | 
COC1=C(OC)C(=O)C(C/C=C(\C)CC/C=C(\C)CC/C=C(\C)CC/C=C(\C)CC/C=C(\C)CC/C=C(\C)CC/C=C(\C)CC/C=C(\C)CC/C=C(\C)CCC=C(C)C)=C(C)C1=O [CoQ10(ubiquinone), ubiquinone] |  | Quercetin>(Curcumin=Resveratrol)>(DIM=Berberine)>CoQ10(ubiquinone) | Quercetin>(DIM=Curcumin=Resveratrol)>Berberine>CoQ10(ubiquinone) | Quercetin>Berberine>Resveratrol>Curcumin>DIM>CoQ10(ubiquinone) | (CoQ10(ubiquinone)≥Curcumin)>(Resveratrol≥DIM)>(Quercetin≥Berberine); also recorded: Highest surface tension |  | complete separation |  |  | 
COc1c(O)c(C)c(C/C=C(\C)CC/C=C(\C)CC/C=C(\C)CC/C=C(\C)CC/C=C(\C)CC/C=C(\C)CC/C=C(\C)CC/C=C(\C)CC/C=C(\C)CCC=C(C)C)c(O)c1OC [sample A, ubiquinol] |  |  |  |  |  |  |  | 0.88 |  | 
O=c1c(O)c(-c2ccc(O)c(O)c2)oc2cc(O)cc(O)c12 [Quercetin, quercetin] |  | Quercetin>(Curcumin=Resveratrol)>(DIM=Berberine)>CoQ10(ubiquinone) | Quercetin>(DIM=Curcumin=Resveratrol)>Berberine>CoQ10(ubiquinone) | Quercetin>Berberine>Resveratrol>Curcumin>DIM>CoQ10(ubiquinone) | (CoQ10(ubiquinone)≥Curcumin)>(Resveratrol≥DIM)>(Quercetin≥Berberine) |  | complete separation |  | Lowest surface tension | 
Oc1ccc(C=Cc2cc(O)cc(O)c2)cc1 [Resveratrol, resveratrol] | complete separation | Quercetin>(Curcumin=Resveratrol)>(DIM=Berberine)>CoQ10(ubiquinone) | Quercetin>(DIM=Curcumin=Resveratrol)>Berberine>CoQ10(ubiquinone) | Quercetin>Berberine>Resveratrol>Curcumin>DIM>CoQ10(ubiquinone) | (CoQ10(ubiquinone)≥Curcumin)>(Resveratrol≥DIM)>(Quercetin≥Berberine) |  |  |  |  | 
COc1ccc2cc3[n+](cc2c1OC)CCc1cc2c(cc1-3)OCO2 [Berberine, berberine] | complete separation | Quercetin>(Curcumin=Resveratrol)>(DIM=Berberine)>CoQ10(ubiquinone) | Quercetin>(DIM=Curcumin=Resveratrol)>Berberine>CoQ10(ubiquinone) | Quercetin>Berberine>Resveratrol>Curcumin>DIM>CoQ10(ubiquinone) | (CoQ10(ubiquinone)≥Curcumin)>(Resveratrol≥DIM)>(Quercetin≥Berberine) |  |  |  |  | Lowest surface tension

Source: US11622947B2, “Compositions comprising quillaja extract and methods of preparations and use thereof” (American River Nutrition, LLC, priority 2019, dated 2023)
